Each structure is given as a SMILES string. In brackets after ≈: the same amount, converted by molar mass. A value given as a limit tells only on which side of the number the result lay.

This experiment has as its system Plasmodium falciparum. In words: Antimalarial activity against chloroquine-sensitive Plasmodium falciparum NF54 assessed as inhibition of maturation of rings into schizonts stage. The format is functional.
As to `CC(=O)O[C@@H]1CC[C@@]2(C)[C@H](CC[C@@H]3[C@@H]2C[C@H](OC(C)=O)[C@]2(C)[C@@H]([C@H](C)CNC(C)C)CC[C@@H]32)C1`, the MIC came out at 10 µg/mL (≈ 21 µM).
As for `CC(=O)O[C@@H]1CC[C@@]2(C)[C@H](CC[C@@H]3[C@@H]2C[C@H](OC(C)=O)[C@]2(C)[C@@H]([C@H](C)CCNC(C)C)CC[C@@H]32)C1`, the MIC was > 50 µg/mL.
Next, `NCCCCNc1ccnc2cc(Cl)ccc12`: 2 µg/mL (≈ 8.01 µM).
For `NCCCNc1ccnc2cc(Cl)ccc12`, the MIC worked out at 10 µg/mL (≈ 42.4 µM).
As to `CCN(CC)CCCC(C)Nc1ccnc2cc(Cl)ccc12` (stereo unspecified) [CHLOROQUINE], the MIC stood at 0.04 µg/mL (≈ 0.125 µM).
As to `CC(=O)O[C@@H]1CC[C@@]2(C)[C@H](CC[C@@H]3[C@@H]2C[C@H](OC(C)=O)[C@]2(C)[C@@H]([C@H](C)CNCCCCNc4ccnc5cc(Cl)ccc45)CC[C@@H]32)C1`, the MIC is 1 µg/mL (≈ 1.5 µM).
With `CC(=O)O[C@@H]1CC[C@@]2(C)[C@H](CC[C@@H]3[C@@H]2C[C@H](OC(C)=O)[C@]2(C)[C@@H]([C@H](C)CCNCc4ccccc4)CC[C@@H]32)C1` the figure was 50 µg/mL (≈ 93 µM); with `CCCCNCC[C@@H](C)[C@H]1CC[C@H]2[C@@H]3CC[C@@H]4C[C@H](OC(C)=O)CC[C@]4(C)[C@H]3C[C@H](OC(C)=O)[C@]12C`, > 50 µg/mL; with `CC(=O)O[C@@H]1CC[C@@]2(C)[C@H](CC[C@@H]3[C@@H]2C[C@H](OC(C)=O)[C@]2(C)[C@@H]([C@H](C)CNCCCNc4ccnc5cc(Cl)ccc45)CC[C@@H]32)C1`, 0.5 µg/mL (≈ 0.766 µM).
As for `CC(=O)O[C@@H]1CC[C@@]2(C)[C@H](CC[C@@H]3[C@@H]2C[C@H](OC(C)=O)[C@]2(C)[C@@H]([C@H](C)CNCc4ccccc4)CC[C@@H]32)C1`, the MIC was 2 µg/mL (≈ 3.82 µM).
For `CCCCNC[C@@H](C)[C@H]1CC[C@H]2[C@@H]3CC[C@@H]4C[C@H](OC(C)=O)CC[C@]4(C)[C@H]3C[C@H](OC(C)=O)[C@]12C`, the MIC was > 10 µg/mL.

As a reminder, the MIC is the least concentration at which growth counts as inhibited.

(Values after ChEMBL document CHEMBL3044553, “Amino steroids as antimalarial agents” (2008).)
